Results published in the supplement of paper PMC5908809.

What was measured:
[1] = tested on: normal NK cells expanded with K562-aAPC; assay: drug sensitivity score (DSS) (DSS units); higher = more sensitive; extreme values may be limits of the assay; settings: 72 h; IL-2 2.5 ng/mL
Method: (§1)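 Drug sensitivity and resistance testing on K562-aAPC-expanded normal NK cells: 5 concentrations (10-fold steps over a 10,000-fold range), 72 h at 37 °C, viability by CellTiter-Glo normalised to DMSO and benzethonium chloride controls; DSS from the fitted curve.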

[2] = tested on: normal primary NK cells, pool 3 (3 donors) (IL-2 2.5 ng/mL); assay: as above; settings: 72 h
KAI3 (IL-2 2.5 ng/mL) [3] = assay: as above; settings: 72 h
[4] = tested on: normal primary NK cells, pool 1 (3 donors) (IL-2 2.5 ng/mL); assay: as above; settings: 72 h
SNK-6 (IL-2 2.5 ng/mL) [5] = assay: as above; settings: 72 h
KHYG-1 (IL-2 2.5 ng/mL) [6] = assay: as above; settings: 72 h
[7] = tested on: normal primary NK cells, pool 2 (3 donors) (IL-2 2.5 ng/mL); assay: as above; settings: 72 h
NK-92 (IL-2 2.5 ng/mL) [8] = assay: as above; settings: 72 h
YT (IL-2 2.5 ng/mL) [9] = assay: as above; settings: 72 h
DERL-7 (IL-2 2.5 ng/mL) [10] = assay: as above; settings: 72 h
[11] = tested on: normal primary NK cells, pool 1 (3 donors), resting (IL-2 0 ng/mL); assay: as above; settings: 72 h
NKL (IL-2 2.5 ng/mL) [12] = assay: as above; settings: 72 h
NK-YS (IL-2 2.5 ng/mL) [13] = assay: as above; settings: 72 h
IMC-1 (IL-2 20 ng/mL) [14] = assay: as above; settings: 72 h
[15] = tested on: normal NK cells expanded with K562-aAPC; assay: percent inhibition of viability; higher = more inhibition; settings: 72 h, IL-2 2.5 ng/mL
Method: as §1

[16] = tested on: normal primary NK cells, pool 3 (3 donors) (IL-2 2.5 ng/mL); assay: as above; settings: 72 h
KAI3 (IL-2 2.5 ng/mL) [17] = assay: as above; settings: 72 h
[18] = tested on: normal primary NK cells, pool 1 (3 donors) (IL-2 2.5 ng/mL); assay: as above; settings: 72 h
SNK-6 (IL-2 2.5 ng/mL) [19] = assay: as above; settings: 72 h
KHYG-1 (IL-2 2.5 ng/mL) [20] = assay: as above; settings: 72 h
[21] = tested on: normal primary NK cells, pool 2 (3 donors) (IL-2 2.5 ng/mL); assay: as above; settings: 72 h
NK-92 (IL-2 2.5 ng/mL) [22] = assay: as above; settings: 72 h
YT (IL-2 2.5 ng/mL) [23] = assay: as above; settings: 72 h
DERL-7 (IL-2 2.5 ng/mL) [24] = assay: as above; settings: 72 h
[25] = tested on: normal primary NK cells, pool 1 (3 donors), resting (IL-2 0 ng/mL); assay: as above; settings: 72 h
NKL (IL-2 2.5 ng/mL) [26] = assay: as above; settings: 72 h
NK-YS (IL-2 2.5 ng/mL) [27] = assay: as above; settings: 72 h
IMC-1 (IL-2 20 ng/mL) [28] = assay: as above; settings: 72 h

O=S(=O)(c1cccc2cnccc12)N1CCCNCC1 [Fasudil] (max concentration tested 50000 nM)
Settings	drug sensitivity score
DERL-7 (IL-2 2.5 ng/mL) [10]	2.67
IMC-1 (IL-2 20 ng/mL) [14]	0
KAI3 (IL-2 2.5 ng/mL) [3]	5.22
KHYG-1 (IL-2 2.5 ng/mL) [6]	2.15
NK-92 (IL-2 2.5 ng/mL) [8]	5.03
NK-YS (IL-2 2.5 ng/mL) [13]	0.3
NKL (IL-2 2.5 ng/mL) [12]	1.12
SNK-6 (IL-2 2.5 ng/mL) [5]	0.22
YT (IL-2 2.5 ng/mL) [9]	4.32
[1]	1.35
[2]	2.91
[4]	4.47
[7]	6.25
[11]	0.88

percent inhibition of viability [%]
Settings	5 nM	50 nM	500 nM	5000 nM	50000 nM
DERL-7 (IL-2 2.5 ng/mL) [24]	-1.59	2.77	2.04	10.3	31.5
IMC-1 (IL-2 20 ng/mL) [28]	-3.69	1.08	-1.1	-3.21	-0.77
KAI3 (IL-2 2.5 ng/mL) [17]	-9.98	-12.1	-8.77	16.4	52.6
KHYG-1 (IL-2 2.5 ng/mL) [20]	-1.86	-2.81	-0.3	5.17	30.2
NK-92 (IL-2 2.5 ng/mL) [22]	-0.3	-5	-7.96	16.5	50
NK-YS (IL-2 2.5 ng/mL) [27]	-10.2	-12.7	-8.89	-1.5	17.1
NKL (IL-2 2.5 ng/mL) [26]	-10.3	-10.6	-5.56	1.78	24
SNK-6 (IL-2 2.5 ng/mL) [19]	-14.4	-9.67	-10.4	-26.7	19.7
YT (IL-2 2.5 ng/mL) [23]	-0.42	-0.99	2.43	9.94	50.6
[15]	-7	-8.84	-5.88	5.82	20.5
[16]	-8.61	9.41	3.96	-0.18	54.6
[18]	-14.3	13.1	11.4	15.1	52.8
[21]	-9.61	4.29	4.21	9.95	82.7
[25]	-18	5.15	-1.43	5.51	16.6

C[C@@H]1C[C@H]2[C@@H]3CCC4=CC(=O)C=C[C@]4(C)[C@@]3(F)[C@@H](O)C[C@]2(C)[C@@]1(O)C(=O)CO [Dexamethasone] (max concentration tested 10000 nM)
Settings	drug sensitivity score
DERL-7 (IL-2 2.5 ng/mL) [10]	37.9
IMC-1 (IL-2 20 ng/mL) [14]	0
KAI3 (IL-2 2.5 ng/mL) [3]	1.14
KHYG-1 (IL-2 2.5 ng/mL) [6]	15.6
NK-92 (IL-2 2.5 ng/mL) [8]	0
NK-YS (IL-2 2.5 ng/mL) [13]	1.07
NKL (IL-2 2.5 ng/mL) [12]	24.6
SNK-6 (IL-2 2.5 ng/mL) [5]	0
YT (IL-2 2.5 ng/mL) [9]	9.59
[1]	25.3
[2]	17.3
[4]	28.9
[7]	26
[11]	35.4

percent inhibition of viability [%]
Settings	1 nM	10 nM	100 nM	1000 nM	10000 nM
DERL-7 (IL-2 2.5 ng/mL) [24]	-2.49	63.1	100	101	101
IMC-1 (IL-2 20 ng/mL) [28]	-2.17	-4.52	-10.6	-12.7	-2.61
KAI3 (IL-2 2.5 ng/mL) [17]	-8.83	-13.5	-3.07	-3.87	31.2
KHYG-1 (IL-2 2.5 ng/mL) [20]	-1.02	14.1	39.9	50.3	69.1
NK-92 (IL-2 2.5 ng/mL) [22]	-14.3	-20.1	-19.3	-2.77	5.06
NK-YS (IL-2 2.5 ng/mL) [27]	-5.2	-1.29	1.38	4.74	18.8
NKL (IL-2 2.5 ng/mL) [26]	12.3	38.1	57.3	64.1	67.1
SNK-6 (IL-2 2.5 ng/mL) [19]	-0.75	-7.56	-4.28	-3.37	8.99
YT (IL-2 2.5 ng/mL) [23]	-0.83	11.3	22.4	36.4	45.4
[15]	1.98	35.4	61.5	68.6	77.8
[16]	-8.83	19.5	43.5	50.7	58
[18]	2.6	42	68.9	80.5	86.6
[21]	2.03	37.3	63.2	69.1	74.5
[25]	8.34	65.5	83.1	84.5	86.9

COc1cc(CCc2cc(NC(=O)c3ccc(N4CC(C)NC(C)C4)cc3)n[nH]2)cc(OC)c1 (configuration not stated) [AZD4547] (max concentration tested 1000 nM)
Settings	drug sensitivity score
DERL-7 (IL-2 2.5 ng/mL) [10]	0
IMC-1 (IL-2 20 ng/mL) [14]	0.05
KAI3 (IL-2 2.5 ng/mL) [3]	2.12
KHYG-1 (IL-2 2.5 ng/mL) [6]	0
NK-92 (IL-2 2.5 ng/mL) [8]	0
NK-YS (IL-2 2.5 ng/mL) [13]	0
NKL (IL-2 2.5 ng/mL) [12]	4.12
SNK-6 (IL-2 2.5 ng/mL) [5]	1.27
YT (IL-2 2.5 ng/mL) [9]	1.18
[1]	0.21
[2]	0
[4]	3.07
[7]	0
[11]	0.81

percent inhibition of viability [%]
Settings	0.1 nM	1 nM	10 nM	100 nM	1000 nM
DERL-7 (IL-2 2.5 ng/mL) [24]	0.65	12	4.33	3.09	5.77
IMC-1 (IL-2 20 ng/mL) [28]	-10.2	-0.55	2.58	3.59	11.7
KAI3 (IL-2 2.5 ng/mL) [17]	0.83	0.57	5.8	15.9	18.7
KHYG-1 (IL-2 2.5 ng/mL) [20]	-1.35	-9.6	-4.7	-0.32	6.6
NK-92 (IL-2 2.5 ng/mL) [22]	-8.61	-19.7	-10.4	1.68	9.5
NK-YS (IL-2 2.5 ng/mL) [27]	-1.26	-3.32	-4.3	-2.46	7.41
NKL (IL-2 2.5 ng/mL) [26]	-6.59	-3.17	6.86	22.1	18.6
SNK-6 (IL-2 2.5 ng/mL) [19]	-8.3	-5.78	6.93	-1.06	30.7
YT (IL-2 2.5 ng/mL) [23]	-1.63	-5.24	0.65	14.1	7.45
[15]	-0.43	-4.83	-0.59	0.99	13.7
[16]	-2.75	5.35	5.93	-3.36	6.54
[18]	0.51	14	13.1	8.85	9.5
[21]	-16.2	4.82	5.78	1.94	4.66
[25]	-1.26	20.1	12.4	9.93	10.7
